This is an account of results in ChEMBL document CHEMBL1926581, “Cyclic ether-containing macrolactins, antimicrobial 24-membered isomeric macrolactones from a marine Bacillus sp” (2011).

≈ marks a conversion by molar mass, not a printed value.

Format in all cases: functional
One test concerns Bacillus subtilis. Description: Antibacterial activity against Bacillus subtilis KCTC 1021 after 24 hrs by broth microdilution method. Conditions: KCTC 1021, 24 h.
A further test relates to Escherichia coli. Description: Antibacterial activity against Escherichia coli KCTC 1923 after 24 hrs by broth microdilution method. Conditions: KCTC 1923, 24 h. On the technique in general: Broth dilution looks for growth in wells or tubes with falling amounts of substance.
Another test has as its system Saccharomyces cerevisiae. Kind of test: Antifungal activity against Saccharomyces cerevisiae KCTC 7913 after 48 hrs by broth microdilution method. The conditions noted are these: KCTC 7913, 48 h.

Consider `C[C@@H]1CCC/C=C/[C@@H]2O[C@@H](C/C=C\C=C\[C@@H](O)C/C=C/C=C\C(=O)O1)C[C@@H](O)[C@H]2O`, for which the MIC with Bacillus subtilis, against Escherichia coli and against Saccharomyces cerevisiae was 0.16 µM (≈ 0.067 µg/mL) in each case.
As for `C[C@@H]1CCC[C@@H]2O[C@H]2/C=C/[C@H](O)C[C@@H](O)C/C=C\C=C\[C@@H](O)C/C=C/C=C\C(=O)O1`, the MIC – broadly, the lowest concentration that inhibits growth of the organism – against Bacillus subtilis amounted to 0.16 µM (≈ 0.067 µg/mL); in the test on Escherichia coli, 0.16 µM (≈ 0.067 µg/mL); with Saccharomyces cerevisiae, 0.02 µM (≈ 0.00837 µg/mL).
Turning to `C[C@@H]1CCC/C=C/[C@@H]2O[C@H](C[C@@H](O)C/C=C\C=C\[C@@H](O)C/C=C/C=C\C(=O)O1)[C@H]2O`, the MIC in the test with Bacillus subtilis, against Escherichia coli and in the test on Saccharomyces cerevisiae was 0.16 µM (≈ 0.067 µg/mL) each time.
